{
  "source": "patent US10265374B2",
  "about": "“Occidiofungin formations and uses thereof” (MISSISSIPPI STATE UNIVERSITY, priority 2014, dated 2019)",
  "key": {"[1]": {"tested_on": "Candida albicans", "details": "Candida albicans (References 9, 10); cited from earlier work"}, "[2]": {"assay": "Pharmacokinetics of occidiofungin in DOPC or DOPC:DPPG vesicles", "assay_type": "in vivo, mice", "details": "vesicle formulations, 2.5 mg/kg i.v., mice", "description": "Entrapment of occidiofungin in vesicles was done using 1,2-Dioleoyl-sn-glycero-3-phosphocholine (DOPC) and 1,2-dipalmitoyl-sn-glycero-3-[phospho-rac-(3-lysyl(1-glycerol))] (DPPG) from Avanti polar lipids. Lipid cake formation and subsequent hydration was done according to the manufacturer's recommendation. Briefly, 20 mg/ml of DOPC in chloroform was placed in a glass beaker and dried by vacuum evaporation to remove the organic solvent. The lipid film formed was hydrated using a 1 μg/μl solution of occidiofungin in 1.5% (2-Hydroxypropyl)-β-cyclodextrin (Alfa Aesar), while maintaining the lipid concentration at 20 mg/ml and the solution was sonicated to form the vesicles. Similarly, DPPG was mixed with DOPC at a ratio of 9:1 (DOPC:DPPG) to make a homogenous lipid mixture at a concentration of 20 mg/ml and the same process of drying and hydration was repeated to make vesicles. Following vesicle formation, estimation of the amount of occidiofungin trapped inside each type of vesicle was done. The mixture containing free and vesicle trapped occidiofungin was passed through a gel filtration column containing Sephadex G-10 beads. The void volume (containing only the vesicle trapped occidiofungin) was collected and occidiofungin extracted using methanol (50% final concentration). Liquid chromatography was done on the extracted sample, and a standard and the concentration of occidiofungin in the extracted sample was estimated by a comparison of peak volumes.\nOccidiofungin in DOPC and DOPC-DPPG, at a concentration of 2.5 mg/kg, with ˜1.25 mg/kg entrapped in vesicles, was administered to six female BALB/c mice respectively via intravenous administration. […] The mice were weighed prior to the start of the experiment and every 24 hours post injection (hpi).\nBlood was drawn at time points 1 hpi, 3 hpi, 5 hpi, 7 hpi, 9 hpi, 12 hpi, 18 hpi, 24 hpi and 48 hpi. 15 μl of blood was drawn from the lateral saphenous vein of each mouse for the first three time points. Blood from three mice were pooled together and added to 5 μl of 6.4% citric acid to prevent coagulation. From the fourth time point, blood was drawn from the tail vein of the mice. Blood samples were spun down at 13000 rpm for 10 minutes to separate the plasma. The plasma and the blood pellet obtained were stored separately at −20° C. until analysis. The plasma samples were thawed and the occidiofungin was extracted using a final concentration of 50% methanol. The protein precipitate was spun down at 13000 rpm for 10 minutes and the supernatant was used for analysis. Liquid chromatography was done using Acclaim 120 C18 columns (Length: 150 mm; I.D: 2.1 mm; 5 μm) to purify the occidiofungin in the sample. The occidiofungin was then subjected to MS/MS. Fragmentation of the occidiofungin (parent mass 1200 and 1216 Da) was carried out and the fragment of 1068 and 1084 Da m/z, which corresponds to the occidiofungin molecule (A and B forms, respectively) without the xylose sugar, was used for quantification of occidiofungin. A calibration curve constructed using standard concentrations of occidiofungin in plasma was used to analyze the samples obtained from the mice for pharmacokinetics (See FIGS. 6A-6B & 7A-7B)."}, "[3]": {"assay": "Pharmacokinetics in mouse (i.v., LC-MS/MS of plasma)", "assay_type": "in vivo", "details": "2.5 mg/kg i.v., mice", "description": "Six week old female BALB-C mice were used for this experiment. Occidiofungin, at a concentration of 2.5 mg/kg of body weight, was administered through the tail vein of each mouse. Nine mice were randomly selected for this experiment and were grouped into three groups of three mice each. Blood was drawn at 1, 3, 5, 7, 9, 12, 24 and 48 hours post injection (hpi) from the mice. 15 μl of blood was drawn from the lateral saphenous vein of each mouse for the first three time points. Blood from three mice were pooled together and added to 5 μl of 6.4% citric acid to prevent coagulation. From the fourth time point, blood was drawn from the tail vein of the mice. Blood samples were spun down at 13000 rpm for 10 minutes to separate the plasma. The plasma and the blood pellet obtained were stored separately at −20° C. for analysis. The plasma samples were thawed and the occidiofungin was extracted using a final concentration of 50% methanol. The protein precipitate was spun down at 13000 rpm for 10 minutes and the supernatant was used for analysis. The LC-MS/MS components were carried out at ThermoScientific laboratories. Liquid chromatography was done using Acclaim 120 C18 columns (Length: 150 mm; I.D: 2.1 mm; 5 μm) to purify the occidiofungin in the sample. The occidiofungin was then subjected to MS/MS using the ThermoScientific TSQ Vantage. Fragmentation of the occidiofungin (parent mass 1216 m/z) was carried out and the fragment of 1084 m/z, which corresponds to the occidiofungin molecule without the xylose sugar, was used for quantification of occidiofungin. All data were acquired and analyzed using TraceFinder (v 3.1)."}},
  "data": [
    {"substance": "occidiofungin", "values": [
      {"measurement": "fungicidal activity compared with caspofungin", "setting": "[1]", "result": "more rapid"},
      {"measurement": "half-life", "setting": "[2]", "result": "~14", "unit": "h"},
      {"measurement": "clearance from the system by 24 hours", "setting": "[3]", "result": "rapidly cleared"},
      {"measurement": "concentration at 9-12 hpi compared to the concentration at 7 hpi", "setting": "[3]", "result": 2.5, "unit": "times"},
      {"measurement": "concentration of occidiofungin relative to the TC50 value for the cancer strains", "setting": "[3]", "result": "three to six fold higher"},
      {"measurement": "time at which occidiofungin concentration peaked", "setting": "[3]", "result": "around 9 hpi"},
      {"measurement": "concentration by 48 hours", "setting": "[3]; limit of quantification 50 ng/ml", "result": "below the level of quantification"},
      {"measurement": "peak concentration in blood/plasma", "setting": "[3]; tail vein", "result": 480, "unit": "ng/mL"}
    ]}
  ]
}
